# Test system: LG0567-F671-PDC complex spheroids viability
# Assay: Anticancer human tumor LG0567-F671-PDC patient-derived lung adenocarcinoma cell line growth inhibition [RAS]
# Details: for viability, T/C: stronger effect = lower value
# Description: RAS pathway inhibitors in Combinations in Complex Spheroids
# A high-throughput screen of multi-cell type tumor spheroids was designed to identify active combinations of RAS pathway inhibitors and targeted small molecules. Complex spheroids include a stromal component modeled by human endothelial cells (HUVEC) and fibroblasts modeled by human mesenchymal stem cells (MSCs). The concentration ranges selected for each drug and investigational agent were based upon clinically achievable concentrations if the clinical Cmax of the agent was known.
# Compounds. The drugs and investigational agents: abemaciclib (NSC768073), cobimetinib (NSC768068), divarasib (GDC6063, NSC841802), docetaxel (NSC628503), GDC-1971 (RLY-1971, NSC841576), gemcitabine (NSC613327), inavolisib (NSC800729), ipatasertib (NSC767898), KB-0742 (NSC834161), MRTX-1133 (NSC836407), osimertinib (NSC779217), RMC-4630 (NSC839698), RMC-6236 (NSC851965), RMC-6291 (NSC852671), Ro-3306 (NSC812927), sapanisertib (NSC764658), SN-38 (NSC673596), staurosporine (NSC755774), SY5609 (NSC837396), and tovorafenib (DAY101, NSC766906), were obtained from the National Cancer Institute (NCI) Developmental Therapeutics Program Chemical Repository. The FDA-approved anticancer drug set is available from the NCI Developmental Therapeutics Program. […] The stock solutions were prepared in dimethyl sulfoxide (DMSO, Sigma-Aldrich, St. Louis, MO, cat. D2650) at 800-fold the tested concentration and stored at -70 degrees C prior to their use. All drugs and investigational agents were tested over a range starting from a high concentration at or near the clinical Cmax and decreasing in half-log increments. If the clinical Cmax for an agent had not been determined, the highest concentration tested was 10 microM.
# Cell Culture. All cells were maintained in an incubator at 37 degrees C and 5% CO2 with 95% humidity. The PDC lines were cultured according to standard operating procedures established by the NCI PDMR. All PDCs were thawed and cultured in Matrigel-coated flasks prepared with a working solution of 1X Ham's F-12 nutrient mix, without supplementation (Invitrogen, Waltham, MA, cat. 11765054), 100 U/mL penicillin-streptomycin (Invitrogen, cat. 15140122), and 2.5% Matrigel (Corning Inc., Corning, NY, cat. 354248) for the first three passages. The 362531-283-R-J2-PDC and 782815-120-R-J1-PDC lines were cultured in 6C/Colon 1B media, which includes advanced DMEM/F-12 (Thermo Fisher Scientific, cat. 12634028), 10 mM HEPES (Thermo Fisher Scientific, cat. 15630080), 1X GlutaMAX supplement (Thermo Fisher Scientific, cat. 35050061), 0.1 mg/mL primocin (InvivoGen, San Diego, CA, cat. ant-pm-2), 10% defined fetal bovine serum, heat inactivated (HyClone Laboratories Inc., Logan, UT, cat. SH30070.03HI), 50% L-WRN conditioned media (ATCC, cat. CRL-3276), 1.25 mM N-Acetyl-L-cysteine (Sigma-Aldrich, cat. A9165), 10 mM nicotinamide (Sigma-Aldrich, cat. N0636), 1X B-27 supplement (Thermo Fisher Scientific, cat. 17504044), 1X N-2 supplement (Thermo Fisher Scientific, cat. 17502048), 50 ng/mL human EGF (Thermo Fisher Scientific, cat. PHG0311), and 10 microM Y-27632 dihydrochloride (Tocris Bioscience, cat. 1254). The K12877-001-R-J1-PDC line was cultured in 6I media, which includes all 6C/Colon 1B media plus 10 ng/mL human FGF-10 (PeproTech, cat. 100-26), 1 ng/mL human FGF-2 (PeproTech, cat. 100-18B), 1 µM prostaglandin E2 (Tocris Bioscience, cat. 2296), […] hydrocortisone (Sigma-Aldrich, cat. H4001), and […] bovine insulin (Sigma-Aldrich, cat. I6634). The K86415-001-R-J1-PDC line was cultured in 6D media, which includes all 6C/Colon 1B media components minus the L-WRN conditioned media. The 485176-168-R4-J1-PDC was cultured in PANC media, which includes all 6C/Colon 1B media plus 100 ng/mL human FGF-10 (PeproTech, cat. 100-26), 500 nM SB-431542 (Selleckchem, cat. S1067), and 10 nM gastrin (Tocris Bioscience, cat. 3006). […]
# [1] = curve of first compound, second compound 0.0316 µM
# [2] = curve of first compound, second compound 0.1 µM
# [3] = curve of first compound, second compound 0.316 µM
# [4] = curve of first compound, second compound 1 µM
# [5] = curve of first compound, second compound 3.16 µM
# [6] = curve of first compound, second compound 10 µM
# [7] = second compound 0.0316 µM, first compound 0.0316 µM
# [8] = second compound 0.0316 µM, first compound 0.1 µM
# [9] = second compound 0.0316 µM, first compound 0.316 µM
# [10] = second compound 0.0316 µM, first compound 1 µM
# [11] = second compound 0.1 µM, first compound 0.0316 µM
# [12] = second compound 0.1 µM, first compound 0.1 µM
# [13] = second compound 0.1 µM, first compound 0.316 µM
# [14] = second compound 0.1 µM, first compound 1 µM
# [15] = second compound 0.316 µM, first compound 0.0316 µM
# [16] = second compound 0.316 µM, first compound 0.1 µM
# [17] = second compound 0.316 µM, first compound 0.316 µM
# [18] = second compound 0.316 µM, first compound 1 µM
# [19] = second compound 1 µM, first compound 0.0316 µM
# [20] = second compound 1 µM, first compound 0.1 µM
# [21] = second compound 1 µM, first compound 0.316 µM
# [22] = second compound 1 µM, first compound 1 µM
# [23] = second compound 3.16 µM, first compound 0.0316 µM
# [24] = second compound 3.16 µM, first compound 0.1 µM
# [25] = second compound 3.16 µM, first compound 0.316 µM
# [26] = second compound 3.16 µM, first compound 1 µM
# [27] = second compound 10 µM, first compound 0.0316 µM
# [28] = second compound 10 µM, first compound 0.1 µM
# [29] = second compound 10 µM, first compound 0.316 µM
# [30] = second compound 10 µM, first compound 1 µM
# 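Further: spheroids exposed to compound for seven days before readout.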
# 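Wherever IC50 is given: luminescence signal used as a proxy for viable cells.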
smiles,measurement,setting,value
Nc1ccn(C2OC(CO)C(O)C2(F)F)c(=O)n1 (stereo unspecified) + C#Cc1c(F)ccc2cc(O)cc(-c3ncc4c(N5CC6CCC(C5)N6)nc(OCC56CCCN5CC(F)C6)nc4c3F)c12,IC50,[1],> 1000 nM
same,IC50,[2],> 1000 nM
same,IC50,[3],< 3.16 nM
same,IC50,[4],< 3.16 nM
same,IC50,[5],< 3.16 nM
same,IC50,[6],< 3.16 nM
same,"viability, T/C","second compound 0.0316 µM, first compound 0.00316 µM",76.6%
same,"viability, T/C","second compound 0.0316 µM, first compound 0.01 µM",74.5%
same,"viability, T/C",[7],60.8%
same,"viability, T/C",[8],59.8%
same,"viability, T/C",[9],63.2%
same,"viability, T/C",[10],59.5%
same,"viability, T/C","second compound 0.1 µM, first compound 0.00316 µM",70.4%
same,"viability, T/C","second compound 0.1 µM, first compound 0.01 µM",71.7%
same,"viability, T/C",[11],52.1%
same,"viability, T/C",[12],61.5%
same,"viability, T/C",[13],59.8%
same,"viability, T/C",[14],59.2%
same,"viability, T/C","second compound 0.316 µM, first compound 0.00316 µM",46.8%
same,"viability, T/C","second compound 0.316 µM, first compound 0.01 µM",46.7%
same,"viability, T/C",[15],47.6%
same,"viability, T/C",[16],46.5%
same,"viability, T/C",[17],49.4%
same,"viability, T/C",[18],44.8%
same,"viability, T/C","second compound 1 µM, first compound 0.00316 µM",26.7%
same,"viability, T/C","second compound 1 µM, first compound 0.01 µM",27.3%
same,"viability, T/C",[19],25.5%
same,"viability, T/C",[20],26.9%
same,"viability, T/C",[21],27.9%
same,"viability, T/C",[22],27.5%
same,"viability, T/C","second compound 3.16 µM, first compound 0.00316 µM",16.1%
same,"viability, T/C","second compound 3.16 µM, first compound 0.01 µM",16.4%
same,"viability, T/C",[23],16.8%
same,"viability, T/C",[24],16%
same,"viability, T/C",[25],16.4%
same,"viability, T/C",[26],14.8%
same,"viability, T/C","second compound 10 µM, first compound 0.00316 µM",8.86%
same,"viability, T/C","second compound 10 µM, first compound 0.01 µM",9.45%
same,"viability, T/C",[27],9%
same,"viability, T/C",[28],8.04%
same,"viability, T/C",[29],8.48%
same,"viability, T/C",[30],9.14%
NC1c2ccccc2OC12CCN(c1cnc3c(N4CCCc5ncccc54)n[nH]c3n1)CC2 (stereo unspecified),"viability, T/C",compound 0.0316 µM,37.3% [middle of 4 runs]
same,"viability, T/C",compound 0.1 µM,26.9% [middle of 4 runs]
same,"viability, T/C",compound 0.316 µM,23.4% [middle of 4 runs]
same,"viability, T/C",compound 1 µM,23% [middle of 4 runs]
same,"viability, T/C",compound 3.16 µM,21.2% [middle of 4 runs]
same,"viability, T/C",compound 10 µM,20.4% [middle of 4 runs]
same,IC50,curve of compound,< 31.6 nM
CC(C)NCC(C(=O)N1CCN(c2ncnc3c2C(C)CC3O)CC1)c1ccc(Cl)cc1 (stereo unspecified) + C#Cc1c(F)ccc2cc(O)cc(-c3ncc4c(N5CC6CCC(C5)N6)nc(OCC56CCCN5CC(F)C6)nc4c3F)c12,IC50,[1],> 10000 nM
same,IC50,[2],> 10000 nM
same,IC50,[3],62.2 nM
same,IC50,[4],< 31.6 nM
same,IC50,[5],< 31.6 nM
same,IC50,[6],< 31.6 nM
same,"viability, T/C",[7],93.5%
same,"viability, T/C",[8],88.3%
same,"viability, T/C",[9],72%
same,"viability, T/C",[10],60.1%
same,"viability, T/C","second compound 0.0316 µM, first compound 3.16 µM",63.5%
same,"viability, T/C","second compound 0.0316 µM, first compound 10 µM",55%
same,"viability, T/C",[11],84.2%
same,"viability, T/C",[12],66%
same,"viability, T/C",[13],70.6%
same,"viability, T/C",[14],51.3%
same,"viability, T/C","second compound 0.1 µM, first compound 3.16 µM",59.3%
same,"viability, T/C","second compound 0.1 µM, first compound 10 µM",56.4%
same,"viability, T/C",[15],50.3%
same,"viability, T/C",[16],50.1%
same,"viability, T/C",[17],54.7%
same,"viability, T/C",[18],35.9%
same,"viability, T/C","second compound 0.316 µM, first compound 3.16 µM",47%
same,"viability, T/C","second compound 0.316 µM, first compound 10 µM",51.6%
same,"viability, T/C",[19],35.4%
same,"viability, T/C",[20],29.8%
same,"viability, T/C",[21],30%
same,"viability, T/C",[22],28.1%
same,"viability, T/C","second compound 1 µM, first compound 3.16 µM",28.2%
same,"viability, T/C","second compound 1 µM, first compound 10 µM",31.2%
same,"viability, T/C",[23],19.4%
same,"viability, T/C",[24],17.9%
same,"viability, T/C",[25],19.2%
same,"viability, T/C",[26],13.9%
same,"viability, T/C","second compound 3.16 µM, first compound 3.16 µM",14.9%
same,"viability, T/C","second compound 3.16 µM, first compound 10 µM",13.4%
same,"viability, T/C",[27],12.4%
same,"viability, T/C",[28],12.7%
same,"viability, T/C",[29],11.1%
same,"viability, T/C",[30],9.42%
same,"viability, T/C","second compound 10 µM, first compound 3.16 µM",8.58%
same,"viability, T/C","second compound 10 µM, first compound 10 µM",5.74%
